Measurements taken from patent US10738070B2, “Mannose-derived antagonists of FimH useful for treating disease” (Fimbrion Therapeutics, Inc., priority 2016, dated 2020).

Columns and labels:
UTI89 bacteria = experiment: Biofilm inhibition assay; type: cell-based; conditions: read-out: Biofilm prevention IC50
Procedure: Biofilm Assay The biofilm inhibition assay was performed with UTI89 bacteria as previously described (L. Cegelski, J. S. Pinkner, N. D. Hammer, C. K. Cusumano, C. S. Hung, E. Chorell, V. Aberg, J. N. Walker, P. C. Seed, F. Almqvist, M. R. Chapman, S. J. Hultgren Nature Chem. Biol. 2009, 5, 913-919). Compounds not listed were not tested.

FimHL = FimHL (Escherichia coli, UniProt P08191); experiment: Differential scanning fluorimetry (DSF); type: binding; conditions: purified FimHL 10 μM with mannoside 100 μM; mean of two biological replicates
Procedure: Differential scanning fluorimetry (DSF) Purified FimHL (10 μM) in the absence or presence of mannoside (100 μM) was combined with 5× SYPRO Orange in a 50 μl reaction mixture buffered in 20 mM HEPES pH 7.5, 150 mM NaCl (HBS) and 0.4% DMSO. Binding equilibria were established by allowing the reaction mixtures to incubate at 23° C. for 30 min. These reaction mixtures were then placed in 96-well clear-bottom PCR plates and subjected to a melt curve from 20-90° C. in 0.5° C. increments of 15 seconds, each followed by a fluorescence read of the “HEX” channel in a Bio-Rad CFX96 thermocycler (Bio-Rad, Hercules, Calif.). Melt curves were fitted to the Boltzmann equation (y=A2+(A1−A2)/(1+exp((x−xo)/dx)) where xo is the Tm) to determine the melting temperature (Tm) using GraphPad Prism 6 (San Diego Calif.). Melting temperatures are represented as the mean and standard error of two biological replicates, each of which consisted of three technical replicates. Compounds not listed were not tested.

FimH = target: T1, FimH (Escherichia coli, UniProt Q1R2J4); experiment: Hemagglutination inhibition (HAI) assay with UTI89 bacteria and guinea pig red blood cells; type: cell-based; conditions: concentration reducing bacterial agglutination of guinea pig red blood cells by greater than 90%; UTI89 bacteria
T1 construct: endogenous in cells; host or cells: E. coli UTI89 bacteria
Procedure: “HAI or EC>90” is that concentration of the FimH inhibitor/antagonist which reduces the bacterial agglutination of guinea pig red blood cells by greater than 90%.
HAI Assay The hemagglutination inhibition (HAI) assay was performed with UTI89 bacteria and guinea pig red blood cells, as previously described (S. J. Hultgren, W. R. Schwan, A. J. Schaeffer, J. L. Duncan Infect. Immun. 1986, 54, 613-620). Compounds not listed were not tested.

Row | SMILES | IC50 (UTI89 bacteria) | DSF Melting Temp (FimHL) | HAI titer EC>90 (FimH)
1 | Cc1cc(-c2ccc3c(c2)C(=O)NCC3)ccc1OC1OC(CO)C(O)C(O)C1O [Example 21, 3,4-Dihydro-7-[4′-(α-D-mannopyranosyloxy)-3′-methylphenyl]-1(2H)-iso-quinolinone] | 247 nM | 75.0 °C | 0.032 µM
2 | Cc1cc(-n2cc(-c3cccnc3)nn2)ccc1O[C@H]1O[C@H](CO)[C@@H](O)[C@H](O)[C@@H]1O [Example 2, 2-methyl-4-[4-(pyridin-3-yl)-1H-1,2,3-triazol-1-yl]phenyl α-D-mannopyranoside] | 524 nM | 74.4 °C | 0.032 µM
3 | Cc1cc(-c2ccc3ccnc(N)c3c2)ccc1O[C@H]1O[C@H](CO)[C@@H](O)[C@H](O)[C@@H]1O [Example 14, 7-[4′-(α-D-mannopyranosyloxy)-3′-methylphenyl]-isoquinolin-1-amine] | 336 nM | 75.1 °C | 0.02 µM
4 | Cc1cc(-n2cc(-c3ccccc3)nn2)ccc1O[C@H]1O[C@H](CO)[C@@H](O)[C@H](O)[C@@H]1O [Example 4, 2-methyl-4-[4-(phenyl)-1H-1,2,3-triazol-1-yl]phenyl α-D-mannopyranoside] | 320 nM | 74.1 °C | 0.032 µM
